Results on 18 compounds are retold here after BindingDB's records for patent US20250313563 (The Broad Institute, 2025).

Experiment [1] deals with Glycogen synthase kinase-3 alpha (Homo sapiens, UniProt P49840). The experiment can be described thus: TR-FRET Assay. A digest of the protocol: (§1)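 Enzyme and test compound were first incubated together for 30 minutes in assay buffer. The kinase reaction followed and was stopped with EDTA. The pSer641 signal was read by time-resolved FRET.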
A general note: TR-FRET usually uses a lanthanide donor and a delayed reading to cut background.

Experiment [2] concerns the target Glycogen synthase kinase-3 beta (Homo sapiens, UniProt P49841). The experiment can be described thus: TR-FRET Assay. The gist of the method:
as §1

Where “and” joins values, the source holds several entries; their conditions need not be identical. Identical values can stand only once.

Glycogen synthase kinase-3 alpha, sequence (P49840 whole entry): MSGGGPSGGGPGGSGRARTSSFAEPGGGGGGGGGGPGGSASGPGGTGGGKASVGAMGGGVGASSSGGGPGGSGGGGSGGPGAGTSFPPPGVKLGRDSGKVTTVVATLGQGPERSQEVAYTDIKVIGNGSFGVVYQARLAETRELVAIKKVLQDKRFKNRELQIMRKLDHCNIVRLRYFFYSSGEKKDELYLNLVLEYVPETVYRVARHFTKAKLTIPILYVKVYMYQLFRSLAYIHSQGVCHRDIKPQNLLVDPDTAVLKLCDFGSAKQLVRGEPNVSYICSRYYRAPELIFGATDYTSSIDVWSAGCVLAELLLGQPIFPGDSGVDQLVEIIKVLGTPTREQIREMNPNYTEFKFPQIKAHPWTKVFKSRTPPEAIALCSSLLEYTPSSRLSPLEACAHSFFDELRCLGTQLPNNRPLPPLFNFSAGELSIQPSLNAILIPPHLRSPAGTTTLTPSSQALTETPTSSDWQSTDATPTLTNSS
Glycogen synthase kinase-3 beta, sequence (P49841 whole entry): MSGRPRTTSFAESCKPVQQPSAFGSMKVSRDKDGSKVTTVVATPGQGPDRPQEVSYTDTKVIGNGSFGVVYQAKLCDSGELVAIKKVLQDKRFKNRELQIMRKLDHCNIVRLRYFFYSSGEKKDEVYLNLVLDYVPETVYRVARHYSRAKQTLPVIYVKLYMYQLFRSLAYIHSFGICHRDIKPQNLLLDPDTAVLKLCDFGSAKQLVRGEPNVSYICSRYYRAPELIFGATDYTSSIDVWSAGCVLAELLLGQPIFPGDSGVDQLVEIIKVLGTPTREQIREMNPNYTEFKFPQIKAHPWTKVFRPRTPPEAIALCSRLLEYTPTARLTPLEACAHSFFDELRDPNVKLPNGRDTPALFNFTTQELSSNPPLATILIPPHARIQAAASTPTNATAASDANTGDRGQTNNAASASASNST

For `CCC1(c2cccc(-c3cc(C)ncc3C)c2)C2=C(CC(C)(C)CC2=O)NC2N=NC(C)=C21` (stereo unspecified) [US20250313563, Compound 883988], the concentration for half-maximal inhibition (IC50) in experiment [1] and in experiment [2] was less than 0.1 µM in each case.
With `CC[C@@]1(c2cccc(-c3ccncc3C)c2)C2=C(CC(C)(C)CC2=O)NC2N=NC(C)=C21` (stereo partly specified) [US20250313563, Compound 913022], the IC50 (usually the concentration that inhibits the measured activity by half) fell in the range of 0.1 to 1 µM in experiment [1] and 1 to 5 µM in experiment [2].
The matching figures for `CC[C@@]1(c2cccc(-c3cnn(C4CCCCC4)c3)c2)C2=CN=NC2NC2=C1C(=O)NC(C)(C)C2` (stereo partly specified) [US20250313563, Compound 951707]: 0.1 to 1 µM and 1 to 5 µM.
The matching figures for `CC1(C)CC(=O)C2=C(C1)NC1=C(CN=N1)C21CCN(S(=O)(=O)c2cnccc2C(F)(F)F)CC1` [US20250313563, Compound 947463]: less than 0.1 µM and 0.1 to 1 µM.
The like results for `CC[C@]1(c2cccc(N3CCCCC3)c2)C2=C(CC(C)(C)NC2=O)NC2N=NC(C(F)(F)F)=C21` (stereo partly specified) [US20250313563, Compound 949178] were, in that order, 0.1 to 1 µM and 1 to 5 µM.
Take `CC[C@@]1(c2cccc(-c3ccnc(C)c3)c2)C2=C(CC(C)(C)NC2=O)NC2N=NC(F)=C21` (stereo partly specified) [US20250313563, Compound 949012]: the IC50 was less than 0.1 µM in experiment [1] and 0.1 to 1 µM in experiment [2].
As for `CCC1(c2cccc(C(F)(F)F)c2)C2=CN=NC2NC2=C1C(=O)N(c1cccc(C)c1)CC2` (stereo unspecified) [US20250313563, Compound 948052], the IC50 in experiment [1] was less than 0.1 µM; in experiment [2], 0.1 to 1 µM.
The matching figures for `CC[C@]1(c2cccc(-c3ccnc(C)c3C)c2)C2=CN=NC2NC2=C1C(=O)NC(C)(C)C2` (stereo partly specified) [US20250313563, Compound 948188]: 1 to 5 µM and more than 5 µM.
The like results for `CCC1(c2cccc(C(F)(F)F)c2)C2=CN=NC2NC2=C1C(=O)N(c1cnn(C)c1C)CC2` (stereo unspecified) [US20250313563, Compound 950612] were, in that order, less than 0.1 µM and 1 to 5 µM.
The matching figures for `CCC1(c2cccc(C(F)(F)F)c2)C2=C(CC(C)(C)CC2=O)NC2N=NC(C(F)(F)F)=C21` (stereo unspecified) [US20250313563, Compound 789584]: 0.1 to 1 µM and 1 to 5 µM.
Regarding `CC[C@]1(c2cccc(-c3c(F)cncc3OC)c2)C2=CN=NC2NC2=C1C(=O)CC(C)(C)C2` (stereo partly specified) [US20250313563, Compound 947511], the concentration for half-maximal inhibition (IC50) in experiment [1] and in experiment [2] was less than 0.1 µM each time.
Turning to `CC[C@]1(c2cccc(-c3c(F)cncc3OC)c2)C2=C(N=NC2)NC2=C1C(=O)N(Cc1ccccc1)C2` [US20250313563, Compound 948549], the IC50 in experiment [1] was < 0.1 µM and 0.1 to 1 µM; in experiment [2] it was < 0.1 µM and 1 to 5 µM.
Turning to `CC1(C)CC(=O)C2=C(C1)NC1=C(CN=N1)[C@]21CCOC(C)(C)C1` [US20250313563, Compound 924298], the half-inhibitory concentration (IC50) in experiment [1] and in experiment [2] was 1 to 5 µM each time.
Take `CC1(C)CC(=O)C2=C(C1)NC1N=NC(C(F)(F)F)=C1[C@]21CCc2c(F)cccc21` (stereo partly specified) [US20250313563, Compound 806569]: the IC50 in experiment [1] and in experiment [2] was less than 0.1 µM each time.
For `CCC1(c2cccc(S(C)(=O)=O)c2)C2=CN=NC2NC2=C1C(=O)NC(C)(C)C2` (stereo unspecified) [US20250313563, Compound 944020], the concentration for half-maximal inhibition (IC50) in experiment [1] and in experiment [2] was less than 0.1 µM in each case.
As for `CC[C@@]1(c2cccc(-c3cnn4c3OCCC4)c2)C2=CN=NC2NC2=C1C(=O)NC(C)(C)C2` (stereo partly specified) [US20250313563, Compound 952019], the half-inhibitory concentration (IC50) is less than 0.1 µM in experiment [1] and 0.1 to 1 µM in experiment [2].
The like results for `CC[C@]1(c2cccc(-c3ccncc3F)c2)C2=C(CC(C)(C)NC2=O)NC2N=NC(F)=C21` (stereo partly specified) [US20250313563, Compound 949643] were, in that order, more than 5 µM and more than 5 µM.
As to `CC[C@@]1(c2ccccc2)C2=CN=NC2NC2=C1C(=O)[C@H](C)C[C@H]2C` (stereo partly specified) [US20250313563, Compound 865201], the 50% inhibitory concentration (IC50) is less than 0.1 µM in experiment [1] and 0.1 to 1 µM in experiment [2].
